# Test system: PMA-differentiated THP-1 cells
# Assay: IL-1β production in PMA-differentiated THP-1 cells stimulated with gramicidin (hTHP-1 assay containing 2% fetal bovine serum; Procedures 1 and 2)
# Type: cell-based, human
# Conditions: Homo sapiens, THP-1, Table B1; 2% fetal bovine serum; class symbols; read-out: Average IC50 of compounds in hTHP-1 assay: hTHP-1 IC50
# Summary of the method: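 PMA-primed (20 ng/ml, 16-18 h) THP-1 cells in RPMI with 2% FBS, 50,000 cells/well, were preincubated 1 h with compound (0.0017-100 μM final, 0.37% DMSO), then stimulated 2 h with 5 μM gramicidin. Supernatant IL-1β measured by HTRF.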
row,Structure (SMILES),IC50
1,"CC(C)c1csc(S(N)(=O)=NC(=O)Nc2c3c(nc4c2CCC4)CCC3)c1 (single isomer, unassigned) [Compound 173a, (R) or (S)-N′-((1,2,3,5,6,7-hexahydrodicyclo-penta[b,e]pyridin-8-yl)carbamoyl)-4-isopropylthiophene-2-sulfonimidamide]",200 to 1000 nM
2,"NS(=O)(=NC(=O)Nc1c2c(nc3c1CCC31CC1)CCC2)c1ccn(C(F)F)n1 (single isomer, unassigned) [Compound 180a, (R) or (S)-1-(difluoromethyl)-N′-((1′,5′,6′,7′-tetrahydro-2′H-spiro[cyclopropane-1,3′-dicyclopenta[b,e]pyridin]-8′-yl)carbamoyl)-1H-pyrazole-3-sulfonimidamide]",200 to 1000 nM

# Same assay, conditions: Homo sapiens, THP-1, Table B1; 2% fetal bovine serum; numeric bounds; read-out: Average IC50 of compounds in hTHP-1 assay: hTHP-1 IC50
row,Structure (SMILES),IC50
1,"CC(C)c1csc(S(N)(=O)=NC(=O)Nc2c3c(nc4c2CCC4)CCC3)c1 (single isomer, unassigned) [Compound 173b, (S) or (R)-N′-((1,2,3,5,6,7-hexahydrodicyclo-penta[b,e]pyridin-8-yl)carbamoyl)-4-isopropylthiophene-2-sulfonimidamide]",> 20000 nM
2,"NS(=O)(=NC(=O)Nc1c2c(nc3c1CCC31CC1)CCC2)c1ccn(C(F)F)n1 (single isomer, unassigned) [Compound 180b, (S) or (R)-1-(difluoromethyl)-N′-((1′,5′,6′,7′-tetrahydro-2′H-spiro[cyclopropane-1,3′-dicyclopenta[b,e]pryidin]-8′-yl)carbamoyl)-1H-pyrazole-3-sulfonimidamide]",> 30000 nM

# Same assay, conditions: Homo sapiens, THP-1, Table B2; 2% fetal bovine serum; class symbols; read-out: hTHP-1 IC50
row,Structure (SMILES),IC50
1,"CC(C)(O)c1csc(S(N)(=O)=NC(=O)Nc2cc(C3CC3)nc3c2CCC3)c1 (single isomer, unassigned) [Compound 176b, (R) or (S)-N′-((2-cyclopropyl-6,7-dihydro-5H-cyclopenta[b]pyridin-4-yl)carbamoyl)-4-(2-hydroxypropan-2-yl)thiophene-2-sulfonimidamide]",1000 to 5000 nM

# Same assay, conditions: Homo sapiens, THP-1, Table B2; 2% fetal bovine serum; numeric bounds; read-out: hTHP-1 IC50
row,Structure (SMILES),IC50
1,"CC1CCc2c1nc1c(c2NC(=O)N=S(N)(=O)c2cnn(C(C)C)c2)CCC1 (single isomer, unassigned) [Compound 171a, (S, R) and (S, S) or (R, S) and (R, R)-1-Isopropyl-N′-((3-methyl-1,2,3,5,6,7-hexahydrodicyclopenta [b,e]pyridin-8-yl)carbamoyl)-1H-pyrazole-4-sulfonimidamide]",> 30000 nM
2,"CC(C)(O)c1csc(S(N)(=O)=NC(=O)Nc2cc(C3CC3)nc3c2CCC3)c1 (single isomer, unassigned) [Compound 176a, (S) or (R)-N′-((2-cyclopropyl-6,7-dihydro-5H-cyclopenta[b]pyridin-4-yl)carbamoyl)-4-(2-hydroxypropan-2-yl)thiophene-2-sulfonimidamide]",> 30000 nM

# Same assay, conditions: Table B1; 2% fetal bovine serum; class symbols; read-out: Average IC50 of compounds in hTHP-1 assay: hTHP-1 IC50
row,Structure (SMILES),IC50
1,"CC1CCc2c1nc1c(c2NC(=O)N=S(N)(=O)c2sc(C(C)(C)O)nc2CO)CCC1 (single isomer, unassigned) [Compound 168ba, (R,S) or (R,R)-4-(hydroxymethyl)-2-(2-hydroxypropan-2-yl)-N′-((3-methyl-1,2,3,5,6,7-hexahydrodicyclo-penta[b,e]pyridin-8-yl)carbamoyl)thiazole-5-sulfonimidamide]",200 to 1000 nM
2,"CC1CCc2c1nc1c(c2NC(=O)N=S(N)(=O)c2sc(C(C)(C)O)nc2CO)CCC1 (single isomer, unassigned) [Compound 168bb, (R,R) or (R,S)-4-(hydroxymethyl)-2-(2-hydroxypropan-2-yl)-N′-((3-methyl-1,2,3,5,6,7-hexahydrodicyclo-penta[b,c]pyridin-8-yl)carbamoyl)thiazole-5-sulfonimidamide]",1000 to 5000 nM
3,"Cc1sc(S(N)(=O)=NC(=O)Nc2c3c(nc4c2CCC4(C)C)CCC3)cc1C(C)(C)O (single isomer, unassigned) [Compound 169a, (S) or (R)-N′-((3,3-dimethyl-1,2,3,5,6,7-hexahydro-dicyclopenta[b,e]pyridin-8-yl)carbamoyl)-4-(2-hydroxypropan-2-yl)-5-methylthiophene-2-sulfonimidamide]",5000 to 30000 nM
4,"Cc1sc(S(N)(=O)=NC(=O)Nc2c3c(nc4c2CCC4(C)C)CCC3)cc1C(C)(C)O (single isomer, unassigned) [Compound 169b, (R) or (S)-N′-((3,3-dimethyl-1,2,3,5,6,7-hexahydro-dicyclopenta[b,e]pyridin-8-yl)carbamoyl)-4-(2-hydroxypropan-2-yl)-5-mehtylthiophene-2-sulfonimidamide]",40 to 200 nM
5,"CC(C)n1ccc(S(N)(=O)=NC(=O)Nc2c3c(nc4c2CCC42CC2)CCC3)n1 (single isomer, unassigned) [Compound 172a, (S) or (R)-1-Isopropyl-N′-((1′,5′,6′,7′-tetrahydro-2′H-spiro[cyclopropane-1,3′-dicyclopenta[b,e]pyridin]-8′-yl)carbamoyl)-1H-pyrazole-3-sulfonimidamide]",5000 to 30000 nM
6,"CC(C)n1ccc(S(N)(=O)=NC(=O)Nc2c3c(nc4c2CCC42CC2)CCC3)n1 (single isomer, unassigned) [Compound 172b, (R) or (S)-1-Isopropyl-N′-((1′,5′,6′,7′-tetrahydro-2′H-spiro[cyclopropane-1,3′-dicyclopenta[b,e]pyridin]-8′-yl)carbamoyl)-1H-pyrazole-3-sulfonimidamide]",200 to 1000 nM
7,"Cc1c(C2CC2)nc2c(c1NC(=O)N=S(N)(=O)c1sc(C(C)(C)O)cc1F)CCC2 (single isomer, unassigned) [Compound 174a, (R) or (S)-N′-((2-cyclopropyl-3-methyl-6,7-dihydro-5H-cyclopenta[b]pyridin-4-yl)carbamoyl)-3-fluoro-5-(2-hydroxypropan-2-yl)thio-phene-2-sulfonimidamide]",5000 to 30000 nM
8,"Cc1c(C2CC2)nc2c(c1NC(=O)N=S(N)(=O)c1sc(C(C)(C)O)cc1F)CCC2 (single isomer, unassigned) [Compound 174b, (S) or (R)-N′-((2-cyclopropyl-3-methyl-6,7-dihydro-5H-cyclopenta[b]pyridin-4-yl)carbamoyl)-3-fluoro-5-(2-hydroxypropan-2-yl)thiophene-2-sulfonimidamide]",40 to 200 nM
9,"Cc1c(C2CC2)nc2c(c1NC(=O)N=S(N)(=O)c1cc(C(C)(C)O)cs1)CCC2 (single isomer, unassigned) [Compound 175a, (R) or (S)-N′-((2-cyclopropyl-3-methyl-6,7-dihydro-5H-cyclopenta[b]pyridin-4-yl)carbamoyl)-4-(2-hydroxypropan-2-yl)thiophene-2-sulfonimidamide]",5000 to 30000 nM
10,"Cc1c(C2CC2)nc2c(c1NC(=O)N=S(N)(=O)c1cc(C(C)(C)O)cs1)CCC2 (single isomer, unassigned) [Compound 175b, (S) or (R)-N′-((2-cyclopropyl-3-methyl-6,7-dihydro-5H-cyclopenta[b]pyridin-4-yl)carbamoyl)-4-(2-hydroxy-propan-2-yl)thiophene-2-sulfonimidamide]",200 to 1000 nM

# Same assay, conditions: Table B2; 2% fetal bovine serum; class symbols; read-out: hTHP-1 IC50
row,Structure (SMILES),IC50
1,"COCc1nc(C(C)(C)O)sc1S(N)(=O)=NC(=O)Nc1c2c(nc3c1CCC3(C)C)CCC2 (single isomer, unassigned) [Compound 170a]",200 to 1000 nM
2,"COCc1nc(C(C)(C)O)sc1S(N)(=O)=NC(=O)Nc1c2c(nc3c1CCC3(C)C)CCC2 (single isomer, unassigned) [Compound 170b, (S) or (R)-N′-((3,3-dimethyl-1,2,3,5,6,7-hexahydrodicyclopenta [b,e]pyridin-8-yl)carbamoyl)-2-(2-hydroxypropan-2-yl)-4-(methoxymethyl) thiazole-5-sulfonimidamide]",5000 to 30000 nM
3,"CC1CCc2c1nc1c(c2NC(=O)N=S(N)(=O)c2cnn(C(C)C)c2)CCC1 (single isomer, unassigned) [Compound 171b, (R, S) and (R, R) or (S, R) and (S, S)-1-Isopropyl-N′-((3-methyl-1,2,3,5,6,7-hexahydrodicyclopenta [b,e]pyridin-8-yl)carbamoyl)-1H-pyrazole-4-sulfonimidamide]",5000 to 30000 nM
4,"CC1CCc2c1nc1c(c2NC(=O)N=S(N)(=O)c2cnn(C(C)C)c2)CCC1 (single isomer, unassigned) [Compound 171c, (R, R) and (R, S) or (S, R) and (S, S)-1-Isopropyl-N′-((3-methyl-1,2,3,5,6,7-hexahydrodicyclopenta [b,e]pyridin-8-yl)carbamoyl)-1H-pyrazole-4-sulfonimidamide]",1000 to 5000 nM
5,"CCc1c(C2CC2)nc2c(c1NC(=O)N=S(N)(=O)c1cc(C(C)(C)O)cs1)CCC2 (single isomer, unassigned) [Compound 181a, (S) or (R)-N′-((2-cyclopropyl-3-ethyl-6,7-dihydro-5H-cyclopenta[b]pyridin-4-yl)carbamoyl)-4-(2-hydroxypropan-2-yl)thiophene-2-sulfonimidamide]",1000 to 5000 nM
6,"CCc1c(C2CC2)nc2c(c1NC(=O)N=S(N)(=O)c1cc(C(C)(C)O)cs1)CCC2 (single isomer, unassigned) [Compound 181b, (R) or (S)-N′((2-cyclopropyl-3-ethyl-6,7-dihydro-5H-cyclopenta[b]pyridin-4-yl)carbamoyl)-4-(2-hydroxypropan-2-yl)thiophene-2-sulfonimidamide]",40 to 200 nM

# Same assay, conditions: Table B2; 2% fetal bovine serum; numeric bounds; read-out: hTHP-1 IC50
row,Structure (SMILES),IC50
1,"CC1CCc2c1nc1c(c2NC(=O)N=S(N)(=O)c2cnn(C(C)C)c2)CCC1 (single isomer, unassigned) [Compound 171d, (S, S) and (S, R) or (R, S) and (R, R)-1-Isopropyl-N′-((3-methyl-1,2,3,5,6,7-hexahydrodicyclopenta [b,e]pyridin-8-yl)carbamoyl)-1H-pyrazole-4-sulfonimidamide]",> 30000 nM
